Measurements as given in PMC3140810 (International Journal of Women's Health, 2011).

Target: CYP3A4 (Homo sapiens, UniProt P08684)
Test: LC-MS/MS of 1-hydroxymidazolam, human liver microsomes
Format: biochemical

CYP3A4, sequence (P08684 2-503): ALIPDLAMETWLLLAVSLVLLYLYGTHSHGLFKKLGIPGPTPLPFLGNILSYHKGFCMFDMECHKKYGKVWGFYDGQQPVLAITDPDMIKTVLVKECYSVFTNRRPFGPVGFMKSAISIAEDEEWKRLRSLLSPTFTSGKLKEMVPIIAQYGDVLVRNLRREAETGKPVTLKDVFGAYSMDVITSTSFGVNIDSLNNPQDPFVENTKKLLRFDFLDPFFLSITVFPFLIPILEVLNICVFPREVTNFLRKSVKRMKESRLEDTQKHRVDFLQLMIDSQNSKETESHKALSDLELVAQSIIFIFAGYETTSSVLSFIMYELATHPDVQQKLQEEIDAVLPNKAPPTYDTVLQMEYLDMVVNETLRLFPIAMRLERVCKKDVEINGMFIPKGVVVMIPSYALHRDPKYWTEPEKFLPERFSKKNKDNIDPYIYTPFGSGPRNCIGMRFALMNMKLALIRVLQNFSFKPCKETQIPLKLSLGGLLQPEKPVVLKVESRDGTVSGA

- Liver microsome inhibition genistein (25 μM): 19%
SMILES: O=c1c(-c2ccc(O)cc2)coc2cc(O)cc(O)c12 [genistein]
